# Results reported in BindingDB's records for patent US9458110 (Bristol Myers Squibb, 2016).
# Biological target: Rho-associated protein kinase 1 (Homo sapiens, UniProt Q13464)
# Assay: In Vitro Assay
# Details: pH 7.5
# Sequence of Rho-associated protein kinase 1 (Q13464 whole entry): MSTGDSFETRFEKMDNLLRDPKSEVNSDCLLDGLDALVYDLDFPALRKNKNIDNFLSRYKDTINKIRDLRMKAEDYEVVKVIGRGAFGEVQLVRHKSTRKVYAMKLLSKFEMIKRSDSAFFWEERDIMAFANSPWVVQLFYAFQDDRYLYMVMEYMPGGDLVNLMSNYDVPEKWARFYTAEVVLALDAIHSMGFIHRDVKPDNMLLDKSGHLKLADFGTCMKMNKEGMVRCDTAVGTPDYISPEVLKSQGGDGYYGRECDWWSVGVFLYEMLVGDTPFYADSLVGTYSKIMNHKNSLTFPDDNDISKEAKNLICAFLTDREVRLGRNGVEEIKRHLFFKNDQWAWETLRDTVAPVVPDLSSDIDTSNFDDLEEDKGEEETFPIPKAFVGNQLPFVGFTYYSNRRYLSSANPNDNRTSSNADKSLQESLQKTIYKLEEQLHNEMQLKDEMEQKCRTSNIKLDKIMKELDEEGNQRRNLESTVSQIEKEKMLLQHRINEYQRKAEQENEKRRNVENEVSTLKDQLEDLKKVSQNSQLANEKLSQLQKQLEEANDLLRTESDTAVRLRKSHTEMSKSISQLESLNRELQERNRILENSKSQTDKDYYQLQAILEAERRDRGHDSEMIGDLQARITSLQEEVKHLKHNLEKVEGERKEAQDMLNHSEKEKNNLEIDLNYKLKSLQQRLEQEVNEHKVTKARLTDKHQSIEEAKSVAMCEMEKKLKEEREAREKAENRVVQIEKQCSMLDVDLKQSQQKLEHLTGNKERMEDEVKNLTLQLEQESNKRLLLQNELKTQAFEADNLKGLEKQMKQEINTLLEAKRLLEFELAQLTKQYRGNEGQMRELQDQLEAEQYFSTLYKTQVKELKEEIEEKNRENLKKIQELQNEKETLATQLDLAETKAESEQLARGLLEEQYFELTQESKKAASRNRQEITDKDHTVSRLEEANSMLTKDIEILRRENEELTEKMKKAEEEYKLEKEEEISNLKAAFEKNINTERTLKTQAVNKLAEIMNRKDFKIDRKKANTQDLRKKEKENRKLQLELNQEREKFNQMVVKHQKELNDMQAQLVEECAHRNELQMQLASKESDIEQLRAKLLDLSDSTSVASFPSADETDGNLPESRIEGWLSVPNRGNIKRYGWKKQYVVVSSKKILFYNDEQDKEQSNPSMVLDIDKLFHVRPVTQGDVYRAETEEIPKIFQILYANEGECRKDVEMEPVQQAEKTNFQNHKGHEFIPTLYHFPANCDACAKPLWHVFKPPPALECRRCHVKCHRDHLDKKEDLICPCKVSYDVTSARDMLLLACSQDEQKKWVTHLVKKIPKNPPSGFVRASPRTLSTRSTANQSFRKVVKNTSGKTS
smiles,measurement,value
"CNC(=O)C[C@@H](NC(=O)c1ccc(-c2cn[nH]c2)c(C)c1)c1ccccc1 [US9458110, 252]",IC50,41.1 nM
